Molecules are shown by their SMILES.

The text below walks through data of patent US20250101383A1, “METHODS AND COMPOSITIONS FOR CARDIAC MODELS” (Sanford Burnham Prebys Medical Discovery Institute, priority 2023, published 2025).

In test [1] the test system is hiPSC-ACMs (atrial-like cardiomyocytes). As to the kind of experiment: Arrhythmia assay and drug treatment in ACMs (arrhythmia index, AI). Format: cell-based, human. As to conditions: for percentage of cells with AI values >20: control 4%. On the procedure:
To test the platform's ability to identify APD modulators, ACMs of the present disclosure were infused with isoproterenol, a non-selective β-adrenergic agonist, known to both shorten APD and increase beat rate in hiPSC-CMs. […] Consistent with median APD75 values, escalating doses of isoproterenol (1 and 9 μM) led to an increase of APD75 KS-D value to ˜0.4 and 0.7 respectively, as compared to control (FIG. 5C). Similarly, to quantify cellular manifestations of arrhythmia, an arrhythmia index (AI) was developed that quantifies beat-to-beat interval irregularities as a metric for arrhythmically beating cells (FIG. 9). In this context, AP trains with AI values lower than 20 were determined to describe regular beating patterns, while AP train with AI values >20 mark were determined to describe irregular beating patterns (FIGS. 10A-E). Finally, to benchmark the platform for arrhythmia-associated phenotypes, the role of dofetilide, a class III anti-arrhythmic that selectively blocks the rapid component of the delayed rectifier outward potassium, was tested.
24 hours post-transfection, 2,000 primary human fibroblasts were added per well to the hiPSC-ACMs. 48 hours later (the day of the imaging), cells were dyed with the voltage sensitive dye Vf2.1 Cl as described above, then treated with 50 μL of 2× solution of isoproterenol (1 μM final) diluted in Tyrode alone and in combination with 2× solution of Verapamil (30 nM final), diluted in Tyrode at the 5th wash. After 20 minutes of compound incubation time, cells were imaged, and single-cell traces analyzed as described previously.

Test [2] has the same test system. Nature of the test: Voltage assay in ACMs (single-cell APD). Format: cell-based, human. As to conditions: for median APD75: untreated 121.3 ms. The source says:
Next, to facilitate the characterization of AF-associated arrhythmia phenotypes in ACMs, an imaging platform was developed that automatically tracks and quantifies action potential (AP) and rhythm parameters in HT with single cell resolution (FIGS. 4A-D). To retrieve AP and rhythm parameters, ACMs of the present disclosure were co-labeled with a voltage dye (VF2.1Cl) and a nuclear dye (Hoechst 33258) (McKeithan et al., 2017). For each condition, one image of the Hoechst dye was collected followed by a 5-second acquisition of the voltage dye channel at 100 Hz. Next, using a custom algorithm developed on the ImageXpress®, each cell in the field of view was segmented using the Hoechst topological information and each cell mask was propagated to the “voltage dye channel”, thereby enabling the quantification of voltage-dependent fluorescence variation over time with single-cell resolution. To retrieve the electrophysiological parameters, a cloud-based trace analysis application was developed that automatically processes each AP trace and retrieves median and standard deviation values, for APD-10, 25, 50, 75, 90; T25-75, T75-25; Vmax up and down; beat rate; peak-to-peak interval; and rhythm regularity index; for each cell. This platform enabled the automatic recording, quantification, and analysis of AP and rhythm parameters in less than 2 minutes per condition.
Voltage assay was performed using the labeling protocol described herein. Briefly, hiPSC-ACMs at day 25 of differentiation were dissociated with TrypLE Select 10× for up to 10 min and the action of TrypLE was neutralized with RPMI supplemented with 10% FBS. Cells were resuspended in RPMI with 2% KOSR (Gibco) and 2% B27 50× with vitamin A (Life Technologies) supplemented with 2 μM Thiazovivin and plated at a density of 6,000 cells per well in a Matrigel-coated 384-well plate. hiPSC-ACMs were then transfected with siRNAs directed against AFib-associated genes (ON-TARGETplus Human, siGATA4: J-008244-05-0002, siGATA5: J-010324-06-0005, siGATA6: J-008351-06-0005, siGJA1: J-011042-05-0002, siGJA5: J-017368-05-0002, siHAND2: J-008698-06-0005, siHCN4: J-006203-05-0002, siKCNA5: J-006215-06-0005, siKCND3: L-006226-00-0005, siKCNJ5: J-006250-06-0002, siKCNN3: J-006270-06-0002, siNKX2-5: J-019795-07-0002, siNKX2-6: J-025793-17-0002, siNPPA: J-012729-05-0002, siPITX2: J-017315-05-0005, siPLN: J-011754-05-0005, siSH3PXD2A: J-006657-07-0002, siSYNE2: J-019259-09-0002, siTBX5: J-013410-5-0002, siZFHX3: J-015410-5-0002) using lipofectamine RNAi Max (ThermoFisher). […] Fluorescence over time quantification and trace analysis were quantified using custom software packages. […]

The next test concerns Drosophila heart. As to the kind of experiment: Octopamine-challenge heart assay. The settings on record: for mean nMAD (arrhythmia) post-octopamine pacing: 100 nM OA. Format: in vivo. The source says: Cardiac phenotypes of middle-aged (3-weeks old) female flies from each cross were characterized using denervated, semi-intact preparations as previously described in (Ocorr et al., 2009; Vogler and Ocorr, 2009). Briefly, hearts from 20-25 flies were examined for each genotype and age. Adult female flies were exposed to FlyNap, a triethylamine-based anesthetic, for at least one minute until no movement was detected. Hearts were exposed by dissection in room temperature, air bubbled, artificial hemolymph (AHL, Ocorr et al, 2007). High-speed video recordings were filmed with a Hamamatsu EM-CCD camera and using HC Image capture software (Hamamatsu Corp). Heart movements were analyzed using the Semi-automated Optical Heartbeat Analysis (SOHA) software (sohasoftware.com). Movies were recorded at speeds of 140+ fps with pixel resolution ˜ 1 micron/pixel allowing very precise temporal and spatial measurements, including heart period (HP) and rate (1/HP), diastolic and systolic intervals, and fractional shortening/contractility. To quantitate arrhythmia, median absolute deviation (MAD) was first calculated. The median value of the absolute deviations of each heart period (Xi) from the median heart period ((X)) was calculated and then multiplied by a constant (k=1.4826 assuming data is normally distributed).
To normalize the MAD index (nMAD), the MAD value was divided by the median heart period. Qualitative records of heart wall movements (M-modes/kymographs) were produced by electronically excising a 1 pixel horizontal “slice” from each movie frame and aligning them horizontally providing an edge trace displaying heart wall movements in the X-axis over time along the Y-axis (Ocorr et al., 2009; Ocorr et al., 2007c).
Octopamine (OA) pacing experiments were performed in situ on the semi-intact fly preparation. OA (Sigma-Aldrich #00250) stock solution (10 mM) was freshly prepared by dissolving in water and was further diluted in AHL. A dose-response curve was generated using doses ranging from 0.1 nM OA to 500 nM OA (Supplemental FIG. 5A). The increase in heart rate was maximal at 100 nM OA, which was the dose used for all subsequent pacing experiments (Supplemental FIG. 5B). Following dissection, hearts were first allowed to equilibrate in fresh AHL for 15 min and 30 sec movies of heart function were recorded. Heart function was recorded three times per fly: 1) pre-drug exposure, 2) after a 15-minute exposure to 100 nM OA, and 3) after a 15-minute post drug exposure recovery period. A second set of hearts exposed only to vehicle (AHL) were filmed at the same three 15-minute intervals to serve as time controls.

Another test has as its system Id1-induced CPs. As to the kind of experiment: Generation of atrial-like cardiomyocytes from Id1-induced cardiac progenitors. As to conditions: retinoic acid 300 nM single dose, day 12. Format: cell-based, human. On the procedure:
To study the molecular basis of chamber-specific electrical disorders such as atrial fibrillation, Id1-overexpressing cardiac progenitors (CPs) were used to generate ACMs (Cunningham et al., 2017, and Yu et al., 2018). Treatment of Id1-induced CPs with a single dose of retinoic acid (300 nM) efficiently promoted the generation of atrial-like, NR2F2+ beating CMs (˜80% were NR2F2+, ACTN2+) (FIG. 1 and FIGS. 2A-B). Consistent with an atrial-like identity, induced ACMs also expressed atria-enriched (Devalla et al., 2015; Uhlen et al., 2015) transcription factors (NR2F2, TBX5, ZNF385B), ion channel genes KCNA5 (encoding Kv1.5) and KCNJ3 (encoding Kir 3.1), ligands (NPPA, NPPB) and receptors (EGR1/2, PDGFRA), at both day 12 and at day 25 of differentiation (FIG. 2C and FIGS. 6A-B).
ACMs for the study were developed by dissociating Id1 overexpressing hiPSCsl with 0.5 mM EDTA (ThermoFisher Scientific) in PBS without CaCl2 and MgCl2 (Corning) for 7 min at room temperature. hiPSC were resuspended in mTeSR-1 media (StemCell Technologies) supplemented with 2 μM Thiazovivin (StemCell Technologies) and plated in a Matrigel-coated 12-well plate at a density of 3×10^5 cells per well. […]

[3] abbreviates: acute OA exposure, control and KD lines.

Regarding `CN(CCOc1ccc(NS(C)(=O)=O)cc1)CCc1ccc(NS(C)(=O)=O)cc1` [dofetilide], in test [1] (dofetilide 33 nM, control 4.0%), the “proportion of arrhythmic cells (AI>20)” value turned out to be 3.9%. Also, in test [1] (dofetilide 100 nM), the “KS-D value of AI distribution vs control” value was 0.7 and the “percentage of cells with AI values >20” value is reported as 67%. Also, the “percentage of cells with AI values >20” value in test [1] (dofetilide 100 nM, listed as Dofetilide) is on record as 67.0%. Besides, the “AI as compared to control” value in test [1] (low dose of dofetilide (33 nM)) is “reduced AI”.
For the compound `CC(C)NCC(O)c1ccc(O)c(O)c1` (stereo not shown) [isoproterenol], in test [2] (isoproterenol 1 μM), the “APD75 KS-D value as compared to control” value is ~0.4 and the “median APD75” value worked out at 108.6 ms. In addition, in test [2] (isoproterenol 9 μM), the “APD75 KS-D value as compared to control” value amounted to 0.7 and the “median APD75” value is given as 91.2 ms. In addition, the “percentage of arrhythmic cells” value in test [1] (isoproterenol alone) is reported as “did not increase”.
For the compound `NCC(O)c1ccc(O)cc1` (stereo not shown) [octopamine], the “mean nMAD (arrhythmia) post-octopamine pacing” value in the test with Drosophila heart (PLN/SclA KD hearts) is 0.1342. Further, in the test with Drosophila heart (control hearts), the “mean nMAD (arrhythmia) post-octopamine pacing” value worked out at 0.0379. For the same compound, in the test with Drosophila heart (setting [3]), the heart rate result was “significantly elevated heart rate” and the systolic intervals entry is given as “significantly shortening systolic intervals”. Moreover, in the test with Drosophila heart (doses 0.1 nM to 500 nM OA), the “dose of maximal effect on heart rate” value came out at 100 nM. In addition, in the test with Drosophila heart (in the presence of OA), the “contraction and relaxation intervals” value is on record as “significantly shortened”.
Consider `CC1=C(/C=C/C(C)=C/C=C/C(C)=C/C(=O)O)C(C)(C)CCC1` [retinoic acid], for which the “NR2F2+, ACTN2+ cells” value with Id1-induced CPs is recorded as ~80%.
In the case of `COc1ccc(CCN(C)CCCC(C#N)(c2ccc(OC)c(OC)c2)C(C)C)cc1OC` (stereo not shown) [verapamil], the “fold less arrhythmic than DMSO control” value in test [1] (verapamil 30 nM, PLN KD+Fib+isoproterenol) came to 1.7 fold. The “percentage of arrhythmic cells” value in test [1] (verapamil 30 nM, PLN KD+Fib+isoproterenol, DMSO control 31.2%) is 18%.
